Source: paper PMC10289903 (Investigational New Drugs, 2023)
Where two headings read alike, the source gives them in different places.

Tested on: patients with locally advanced or metastatic solid tumors
Description: This was a Phase Ib, multicenter, open-label, dose-finding clinical trial (NCT02610075). […] Three types of treatment schedules were investigated: cohorts bid 1, bid 2, qd 1.1, qd 2.1 and qd 3.1 received bid or qd treatment on a 5/9 schedule (5 days on treatment, followed by 9 days off) on a 14-day cycle. Cohorts qd 1.2, qd 2.2, and qd 3.2 received treatment on a 5/2 schedule (5 days on followed by 2 days off for 2 of 3 weeks) in a 21-day cycle. Cohorts qd 2.3 and qd 3.3 received treatment on a weekly 5/2 schedule in a 21-day cycle (Table 1). The highest dose level(s) at which less than one-third of evaluable patients (none of 3 patients or 1 of 6 patients) experienced a dose-limiting toxicity (DLT) was declared the MTD.
The per protocol analysis set was defined as a subset of the full analysis set, excluding subjects having an important protocol deviation, to be used for analyses of efficacy endpoints if appropriate.

## C=CCn1c(=O)c2cnc(Nc3ccc(N4CCN(C)CC4)cc3)nc2n1-c1cccc(C(C)(C)O)n1 [adavosertib, Adavosertib]
All cohorts (N=62)
  Treatment-related SAE: pneumonia: 2 [3.2%] n [%]
  Treatment-related SAE: thrombocytopenia: 1 [1.6%] n [%]
Bid 2: 150 mg bid 5/9 (n=6)
  Abdominal pain (treatment-emergent AE): 1 (16.7) n (%)
  Abdominal pain (treatment-related AE): 0 n (%)
  Alanine aminotransferase increased (treatment-emergent AE): 0 n (%)
  Anemia (treatment-emergent AE): 1 (16.7) n (%)
  Anemia (treatment-related AE): 1 (16.7) n (%)
  Any AE (treatment-emergent): 6 (100) n (%)
  Any grade ≥ 3 AE: 5 (83.3) n (%)
  Any treatment-related AE: 6 (100) n (%)
  Any treatment-related grade ≥ 3 AE: 3 (50.0) n (%)
  Asthenia (treatment-emergent AE): 1 (16.7) n (%)
  Asthenia (treatment-related AE): 0 n (%)
  Back pain (treatment-emergent AE): 2 (33.3) n (%)
  Constipation (treatment-emergent AE): 2 (33.3) n (%)
  Constipation (treatment-related AE): 1 (16.7) n (%)
  Cough (treatment-emergent AE): 1 (16.7) n (%)
  Decreased appetite (treatment-emergent AE): 2 (33.3) n (%)
  Decreased appetite (treatment-related AE): 2 (33.3) n (%)
  Dehydration (treatment-emergent AE): 4 (66.7) n (%)
  Dehydration (treatment-related AE): 4 (66.7) n (%)
  Diarrhea (treatment-emergent AE): 5 (83.3) n (%)
  Diarrhea (treatment-related AE): 5 (83.3) n (%)
  Dizziness (treatment-emergent AE): 1 (16.7) n (%)
  Dyspepsia (treatment-emergent AE): 1 (16.7) n (%)
  Dyspepsia (treatment-related AE): 1 (16.7) n (%)
  Dyspnea (treatment-emergent AE): 2 (33.3) n (%)
  Edema peripheral (treatment-emergent AE): 1 (16.7) n (%)
  Fall (treatment-emergent AE): 1 (16.7) n (%)
  Fatigue (treatment-emergent AE): 5 (83.3) n (%)
  Fatigue (treatment-related AE): 4 (66.7) n (%)
  Headache (treatment-emergent AE): 1 (16.7) n (%)
  Hypokalemia (treatment-emergent AE): 1 (16.7) n (%)
  Insomnia (treatment-emergent AE): 1 (16.7) n (%)
  Muscle spasms (treatment-emergent AE): 0 n (%)
  Myalgia (treatment-emergent AE): 0 n (%)
  Myalgia (treatment-related AE): 0 n (%)
  Nausea (treatment-emergent AE): 3 (50.0) n (%)
  Nausea (treatment-related AE): 3 (50.0) n (%)
  Neutropenia (treatment-emergent AE): 2 (33.3) n (%)
  Neutropenia (treatment-related AE): 2 (33.3) n (%)
  Pneumonia (treatment-emergent AE): 0 n (%)
  Pyrexia (treatment-emergent AE): 2 (33.3) n (%)
  Rash (treatment-emergent AE): 0 n (%)
  Thrombocytopenia (treatment-emergent AE): 0 n (%)
  Thrombocytopenia (treatment-related AE): 0 n (%)
  Urinary tract infection (treatment-emergent AE): 1 (16.7) n (%)
  Vomiting (treatment-emergent AE): 2 (33.3) n (%)
  Vomiting (treatment-related AE): 2 (33.3) n (%)
Cohort qd 3.3
  Deaths attributed to disease progression and an SAE of treatment-unrelated grade 5 sepsis, patients: one
human, in vivo
  AEs leading to dose interruptions, patients: 25 (40.3%) n (%)
  AEs leading to dose reductions, patients: 17 (27.4%) n (%)
  AEs leading to treatment discontinuation, patients: 4 (6.5%) n (%)
  Abdominal pain (treatment-emergent AE): 15 (24.2) n (%)
  Alanine aminotransferase increased (treatment-emergent AE): 8 (12.9) n (%)
  Anemia (treatment-emergent AE): 16 (25.8) n (%)
  Anemia (treatment-related AE): 11 (17.7) n (%)
  Asthenia (treatment-emergent AE): 10 (16.1) n (%)
  Back pain (treatment-emergent AE): 13 (21.0) n (%)
  Constipation (treatment-emergent AE): 15 (24.2) n (%)
  Cough (treatment-emergent AE): 9 (14.5) n (%)
  Decreased appetite (treatment-emergent AE): 14 (22.6) n (%)
  Decreased appetite (treatment-related AE): 11 (17.7) n (%)
  Dehydration (treatment-related AE): 11 (17.7) n (%)
  Dehydration leading to dose interruption, patients: 4 (6.5%) n (%)
  Diarrhea leading to dose interruption, patients: 4 (6.5%) n (%)
  Dizziness (treatment-emergent AE): 14 (22.6) n (%)
  Dyspepsia (treatment-emergent AE): 8 (12.9) n (%)
  Dyspnea (treatment-emergent AE): 9 (14.5) n (%)
  Edema peripheral (treatment-emergent AE): 16 (25.8) n (%)
  Fall (treatment-emergent AE): 9 (14.5) n (%)
  Fatigue leading to dose interruption, patients: 4 (6.5%) n (%)
  Headache (treatment-emergent AE): 8 (12.9) n (%)
  Hypokalemia (treatment-emergent AE): 11 (17.7) n (%)
  Muscle spasms (treatment-emergent AE): 8 (12.9) n (%)
  Myalgia (treatment-emergent AE): 12 (19.4) n (%)
  Myalgia (treatment-related AE): 9 (14.5) n (%)
  Neutropenia (treatment-emergent AE): 10 (16.1) n (%)
  Neutropenia (treatment-related AE): 9 (14.5) n (%)
  Neutropenia leading to dose reduction, patients: 4 (6.5%) n (%)
  Number of treatment-related serious AEs: 10
  Patients with serious AEs: 25 (40.3%) n (%)
  Pyrexia (treatment-emergent AE): 10 (16.1) n (%)
  Thrombocytopenia (treatment-emergent AE): 10 (16.1) n (%)
  Thrombocytopenia (treatment-related AE): 10 (16.1) n (%)
  Thrombocytopenia leading to dose interruption, patients: 4 (6.5%) n (%)
  Thrombocytopenia leading to dose reduction, patients: 5 (8.1%) n (%)
  Treatment-related SAE: anemia: 1 [1.6%] n [%]
  Treatment-related SAE: dehydration: 2 [3.2%] n [%]
  Treatment-related SAE: febrile neutropenia: 1 [1.6%] n [%]
  Urinary tract infection (treatment-emergent AE): 9 (14.5) n (%)
  Vomiting (treatment-emergent AE): 16 (25.8) n (%)
  Vomiting (treatment-related AE): 14 (22.6) n (%)
In vivo
  Number of serious AEs (SAEs) reported: Fifty
Qd 1.1: 200 mg qd 5/9 (n=5)
  Abdominal pain (treatment-emergent AE): 1 (20.0) n (%)
  Abdominal pain (treatment-related AE): 0 n (%)
  Alanine aminotransferase increased (treatment-emergent AE): 2 (40.0) n (%)
  Anemia (treatment-emergent AE): 0 n (%)
  Anemia (treatment-related AE): 0 n (%)
  Any AE (treatment-emergent): 5 (100) n (%)
  Any grade ≥ 3 AE: 1 (20.0) n (%)
  Any treatment-related AE: 5 (100) n (%)
  Any treatment-related grade ≥ 3 AE: 1 (20.0) n (%)
  Asthenia (treatment-emergent AE): 2 (40.0) n (%)
  Asthenia (treatment-related AE): 2 (40.0) n (%)
  Back pain (treatment-emergent AE): 0 n (%)
  Constipation (treatment-emergent AE): 1 (20.0) n (%)
  Constipation (treatment-related AE): 1 (20.0) n (%)
  Cough (treatment-emergent AE): 0 n (%)
  Decreased appetite (treatment-emergent AE): 0 n (%)
  Decreased appetite (treatment-related AE): 0 n (%)
  Dehydration (treatment-emergent AE): 0 n (%)
  Dehydration (treatment-related AE): 0 n (%)
  Diarrhea (treatment-emergent AE): 1 (20.0) n (%)
  Diarrhea (treatment-related AE): 1 (20.0) n (%)
